Measurements taken from patent publication US8957087B2, “Heterocyclic substituted acardite derivate and application thereof” (Jiangsu Provincial Institute of Materia Medica Co., Ltd., priority 2009, dated 2015).

Tests used:
Raf-1(truncated) = assay: Raf-1 inhibitor screening by chemoluminescence method; format: biochemical; details: Final concentration 1 x 1.0*10^−5 mol/ml
Source text: 1. Inhibitory activity of the compound of the present invention on raf kinase
Raf-1 inhibitor screening by chemoluminescence method
Westernblot electrophoresis apparatus Rotaryshaker
Raf-1(truncated), Magnesium/ATP Cocktail, MEK1 unactive

[1] = test system: human lung cancer cell strain A549; assay: MTT assay, inhibition of growth of human lung cancer cell strain A549; format: cell-based
Procedure: 4. Using 3-(4,5-dimethylthiazol-2-yl)-2,5-diphenyl tetrazolium bromide assay (MTT) to detect the inhibition effects on the growth of human lung cancer cell strain A549
[Test materials] MTT working solution, F12 medium containing 10% FBS, continuous injectors
(§1) [Tested compound] Compounds 1-38
(§2) [Positive control medicine] Sorafenib, compounds A′, B′, C′ with no substituent or only amino formyl in A ring
The inhibition rate is calculated as follows:
(§3) Relative OD value of conrol well=OD value of control well−OD value of blank well
(§4) Relative OD value of drug well=OD value of drug well−OD value of blank well

[2] = test system: human high-metastic lung cancer cell 95D; assay: Inhibition of human high-metastic lung cancer cell 95D migration (Boyden Chamber Transwell); format: cell-based; details: Final concentration 1 x 1.0*10^(−5) mol/L
Procedure: 5 Inhibition effects of compounds on human high-metastic lung cancer cell 95D migration
[Test materials] Boyden Chamber Transwell chamber (with pore size of 8 μm), human high-metastic lung cancer cell 95D cell strain, 1640 medium containing 10% FBS, 1640 medium containing no serum
as §1, §2
(§5) The inhibition rate is calculated as follows: […]

lung cancer cell A549 = assay: Effects on the adhesive ability of lung cancer cell A549; format: cell-based, human; details: Final concentration 1 x 1.0*10^(−5) mol/L
Procedure: 6. Effects of tested compounds on the adhesive ability of lung cancer cell A549
[Test materials] gelatin, CCK8, poly-lysine (PLL), A549 cell stains, 1640 medium containing 10% FBS
(§6) [Tested compound] Compounds 1-38 to be tested
as §2, §5
Dosing dosing cells without cell group (gelatin adhesive OD/PLL adhesion OD)−Dosing cell group (gelatin adhesive OD/PLL adhesion OD value)
Dosing dosing cells without cell group (gelatin adhesive OD/PLL adhesion OD value)

[3] = test system: human umbilical vein endothelial cell HUVEC; assay: Growth of human umbilical vein endothelial cell HUVEC by CCK8 method; format: cell-based; details: Final concentration 1 x 1.0*10^(−5) mol/L
Source text: 7. Effects of tested compounds on the growth of human umbilical vein endothelial cell HUVEC cell by CCK8 method
[Test materials] CCK8, human umbilical vein endothelial cell HUVEC cell, 1640 medium containing 10% FBS
as §6, §2, §3, §4

[4] = test system: human umbilical vein endothelial cell HUVEC; assay: Lumen formation ability of HUVEC (Matrigel method); format: cell-based; details: Final concentration 1 x 1.0*10^(−5) mol/L
Source text: 8. Inhibition effects of compounds on the lumen formation ability of human umbilical vein endothelial cell HUVEC
[Experimental principles] The human umbilical vein endothelial cells have ability of spontaneously forming blood lumen on Matrigel, which can be used to simulate the process of angiogenesis in vivo. We used Matrigel method to investigate the effects of the compound on the lumen formation ability of human umbilical vein endothelial cell HUVEC.
[Test materials] HUVEC (taking generation 3 to 5 cells for experiments after obtained from primary separation and cultured at 37 under the conditions of 5% CO2), Matrigel, cell culture medium M199.
as §1, §2, §5

[5] = test system: human lung cancer A549 transplantation tumor; format: in vivo; details: BALB/cA nude mice; 60 mg/kg, 6 times every week for 3 weeks; Sorafenib oral 60 mg/kg
Procedure: 9. Tumor inhibition rate of tested compounds on human lung cancer A549 cell transplantation model in nude mice
(§7) [Test animals] female BALB/cA nude mice, 35-40 days old, with weight of 18-22g. There were 12 mice in the negative conrol group and 6 mice in the treatment group.
(§8) The dosage of the compound was 60 mg/kg, 6 times every week for 3 weeks. […] Equal amount of normal saline was administrated in the negative control group. Observe for one week after administration.

[6] = test system: human liver cancer cell bel-7402 transplantation tumor; format: in vivo; details: BALB/cA nude mice; 60 mg/kg, 6 times every week for 3 weeks; Sorafenib oral 60 mg/kg
Procedure: 10. Tumor inhibition rate of tested compounds on human liver cancer cell bel-7402 transplantation tumor model in nude mice
as §7, §8

[7] = test system: renal carcinoma cell line GCR-1 transplanted tumor; format: in vivo, BALB/cA nude mice; details: BALB/cA nude mice; 60 mg/kg, 6 times every week for 3 weeks; Sorafenib oral 60 mg/kg
Procedure: 11. Tumor inhibition rate of medicines on renal carcinoma cell line GCR-1 transplanted tumor model in nude mice
as §7
[Test method] […] The dosage of the medicine was 60 mg/kg, 6 times every week for 3 weeks. […] Equal amount of normal saline was administrated in the negative control group. Observe for one week after administration.

mice S180 sarcoma = assay: Experimental therapeutic action on S180 sarcoma mice; details: mice S180 sarcoma, 60 mg/kg orally for 9 days
[8] = test system: Human colon cancer HT-29 transplantable tumor; assay: Human colon cancer HT-29 transplantable tumor in nude mice; details: HT-29 in nude mice, 60 mg/kg ig 9 times

Structure (SMILES) | Inhibition rate % on raf kinase (Raf-1(truncated)) | Inhibition rate, growth of human lung cancer cell A549 [1] | Inhibition rate, 95D cell strain migration [2] | Inhibition rate, adhesion ability of human lung cancer cell A549 (lung cancer cell A549) | Inhibition rate, growth of HUVEC cell [3] | Inhibition rate, lumen formation ability of HUVEC [4] | Relative tumor reproduction rate T/C (%) on human lung cancer A549 transplantation tumor in nude mice [5] | Relative tumor reproduction rate T/C (%) on human liver cancer cell bel-7402 transplantation tumor model in nude mice [6] | Relative tumor reproduction rate T/C (%) on human renal carcinoma GCR-1 cell transplanted tumor model in nude mice [7] | Tumor growth inhibition rate (%) (mice S180 sarcoma) | Relative tumor reproduction rate T/C (%) [8]
O=C(Nc1ccc(Oc2ncnc3cc(F)ccc23)cc1)Nc1ccc(Cl)c(C(F)(F)F)c1 [Compound 19, N-(4-chloro-3-(trifluoromethyl)phenyl)-N′-(4-(4-(7 fluoroquinazolinyl)oxy)phenyl)urea] | 93.5% | 91.23% | 90.21% | 90.28% | 5.23% | 89.22% | 7.7% | 16.3% | 13.2% | 50.8% | 39.4%
O=C(Nc1ccc(Oc2ncnc3cc(F)ccc23)cc1)Nc1ccc(F)c(C(F)(F)F)c1 [Compound 20, N-(4-fluoro-3-(trifluoromethyl)phenyl)-N′-(4-(4-(7 fluoroquinazolinyl)oxy)phenyl)urea] | 87.7% | 88.32% | 89.12% | 95.31% | 7.32% | 88.54% | 12.1% | 17.2% | 13.1% | 54.6% | 40.1%
O=C(Nc1ccc(Oc2ncnc3cc(F)ccc23)cc1)Nc1ccc(Br)c(C(F)(F)F)c1 [Compound 21, N-(4-bromo-3-(trifluoromethyl)phenyl)-N′-(4-(4-(7 fluoroquinazolinyl)oxy)phenyl)urea] | 98.9% | 89.21% | 88.76% | 90.22% | 11.21% | 89.47% | 13.7% | 16.4% | 7.8% | 59.7% | 38.7%
COc1ncncc1Oc1ccc(NC(=O)Nc2ccc(Cl)c(C(F)(F)F)c2)cc1 [Compound 22, N-(4-chloro-3-(trifluoromethyl)phenyl)-N′-(4-(5-(4-methoxypyrimidinyl)oxy)phenyl)urea] | 88.1% | 82.49% | 88.77% | 72.44% | 12.49% | 86.72% | 15.3% | 15.3% | 8.1% | 52.1% | 41.2%
COc1ncncc1Oc1ccc(NC(=O)Nc2ccc(F)c(C(F)(F)F)c2)cc1 [Compound 23, N-(4-fluoro-3-(trifluoromethyl)phenyl)-N′-(4-(5-(4-methoxypyrimidinyl)oxy)phenyl)urea] | 89.9% | 55.41% | 85.53% | 77.56% | 17.41% | 97.56% | 17.1% | 17.7% | 9.1% | 51.5% | 39.7%
COc1ncncc1Oc1ccc(NC(=O)Nc2ccc(Br)c(C(F)(F)F)c2)cc1 [Compound 24, N-(4-bromo-3-(trifluoromethyl)phenyl)-N′-(4-(5-(4-methoxypyrimidinyl)oxy)phenyl)urea] | 91.3% | 86.32% | 85.48% | 73.30% | 13.32% | 93.78% | 15.6% | 16.8% | 10.8% | 54.6% | 37.8%
Nc1ccc2c(Oc3ccc(NC(=O)Nc4ccc(Cl)c(C(F)(F)F)c4)cc3)cncc2c1 [Compound 25, N-(4-chloro-3-(trifluoromethyl)phenyl)-N′-(4-(4-(7-amino-isoquinolyl)oxy)phenyl)urea] | 11.5% | 63.26% | 59.76% | 63.51% | 23.26% | 79.79% | 39.4% | 29.1% | 31.2% | 55.8% | 79.5%
Nc1ccc2c(Oc3ccc(NC(=O)Nc4ccc(F)c(C(F)(F)F)c4)cc3)cncc2c1 [Compound 26, N-(4-fluoro-3-(trifluoromethyl)phenyl)-N′-(4-(4-(7-amino-isoquinolyl)oxy)phenyl)urea] | 15.3% | 55.50% | 60.52% | 68.57% | 32.50% | 70.53% | 33.1% | 36.1% | 24.2% | 7.6% | 41.1%
